Test results as given in ChEMBL document CHEMBL4049411, “Rational Design, Synthesis, and Biological Evaluation of Heterocyclic Quinolones Targeting the Respiratory Chain of Mycobacterium tuberculosis” (J Med Chem, 2017).

Experiments:
[1] = system: Mycobacterium tuberculosis; test: Growth inhibition of multi-drug resistant Mycobacterium tuberculosis DQ707 harboring katG S315N mutant; format: functional
[2] = system: Mycobacterium tuberculosis; test: Growth inhibition of multi-drug resistant Mycobacterium tuberculosis 05TB42059; format: functional

`Cc1c(-c2ccc(N3CCC(F)(F)C3)cc2)[nH]c2cc(F)cc(F)c2c1=O` showed an IC50 [1] of 0.548 µM and an IC50 [2] of 0.14 µM.
